What was measured:
[1] = biological target: T1, GTPase KRas (Homo sapiens, UniProt P01116, G12C); test: Inhibition of KRAS G12C mutant (2 to 188 residues) (unknown origin) expressed in Escherichia coli assessed as inhibition of SOS mediated nucleotide exchange at 21 degreeC for 15 mins by HTRF assay
[2] = biological target: T1, GTPase KRas; test: Inhibition of KRAS G12C mutant (2 to 188 residues) (unknown origin) expressed in Escherichia coli assessed as inhibition of SOS mediated nucleotide exchange at 4 degreeC for 18 hrs by HTRF assay
[3] = biological target: T1, GTPase KRas; test: Inhibition of KRAS G12C mutant in human HCC1171 cells assessed as effect on cell alkylation measured after 18 hrs by western blot analysis; format: cell-based
[4] = biological target: T1, GTPase KRas; test: Inhibition of KRAS G12C mutant (2 to 188 residues) (unknown origin) expressed in Escherichia coli assessed as inhibition of SOS mediated nucleotide exchange measured after 18 hrs by HTRF assay

Compound | IC50 [1] | IC50 [2] | EC50 [3] | IC50 [4]
C=CC(=O)N1CCN(c2nc(OC[C@@H]3CCCN3C)nc3c2CC[C@]2(CCc4ccccc4C2)C3)C[C@@H]1CC#N | 0.131 µM | 0.06 µM | – | –
C=CC(=O)N1CCN(c2nc(OC[C@@H]3CCCN3C)nc3c2C[C@@H](C)[C@H](c2cc(O)cc4ccccc24)C3)[C@@H](C)C1 | – | – | < 0.0061 µM | –
C=CC(=O)N1CCN(c2nc(OCc3cn(C)cn3)nc3c2CC[C@H](c2cc(O)cc4ccccc24)C3)[C@@H](C)C1 | – | – | 3 µM | 0.47 µM
C=CC(=O)N1CCN(c2nc(OC[C@@H]3CCCN3C)nc3c2CC[C@@]2(CCc4ccccc4C2)C3)C[C@@H]1CC#N | 0.291 µM | 0.051 µM | – | –
C=CC(=O)N1CCN(c2nc(OC[C@@H]3C[C@H](F)CN3C)nc3c2C[C@@H](C)[C@H](c2cc(O)cc4ccccc24)C3)[C@@H](C)C1 | – | – | 0.04 µM | 0.011 µM
C=CC(=O)N1CCN(c2nc(OC[C@@H]3CCCN3C)nc3c2CCC2(CCc4ccccc4C2)C3)C[C@@H]1CC#N (stereo partly specified) | 0.142 µM | 0.046 µM | – | –

Reference: ChEMBL document CHEMBL5046324, “Small-Molecule Inhibitor of the Oncogenic KRASG12C Mutant for the Treatment of Currently Incurable Cancer” (ACS Med Chem Lett, 2022)
